From patent publication US8148392B2, “2-indolyl imidazo [4,5-d] phenanthroline derivatives and their use in the treatment of cancer” (Lorus Therapeutics Inc., priority 2005, dated 2012)
“Also recorded” adds a separate entry of the source.

Assays:
[1] = PAR metal binding assay, zinc; assay type: physicochemical; details: pH 7.5, 200 μM PAR
Method: Results are shown in FIGS. 28A (ZnCl2), 28B (CuCl2) and 28C (FeCl2). In vitro 4-(2-pyridylazo) resorcinol (PAR) zinc binding assay was performed as follows. In triplicate wells of 96-well plate (Sarstedt, Newton, N.C.), 10 μL volume of indicated final concentrations of ZnCl2 in 0.2M Tris-HCl, pH 7.5 was incubated with 10 μL of 80% acetonitrile-20% DMSO vehicle control or indicated final concentrations of the compounds of Formula I, dissolved in 80% acetonitrile-20% DMSO, for 15 min at room temperature. Then, 80 μL of PAR at final concentration of 200 μM in 0.2M Tris-HCl, pH 7.5 was added and the color development of PAR-Zn^2+ complex was measured by a multi-well spectrophotometer (Bio-Tek Instruments Inc.) at 500 nm.
Metal chelation property of compound 64 and the relative affinity on different metal ions were evaluated and compared with the effect of compound 3 in vitro using 4-(2-pyridylazo) resorcinol (PAR) colorimetric zinc assay utilizing methodology as described above in the preceding Examples. Indicated final concentrations of ZnCl2 (FIG. 56A), CuCl2 (FIG. 56B) or FeCl2 (FIG. 56C) were incubated with 80% acetonitrile-20% DMSO vehicle control or 200 μM of the compounds of Formula I. The color development of PAR-metal ion complex was measured by a multi-well spectrophotometer at 500 nm.

KLF4 = KLF4 DNA binding activity, EMSA, HT-29 nuclear extracts; assay type: cell-based, human
Method: Based on overlapping transcription factor binding sites on KLF4 gene promoter region (as shown in FIG. 32A), MTF-1 binding may favor increased binding of other KLF4 inducers; Sp1 and KLF4.
Electrophoretic mobility shift assay (EMSA) was performed as follows. Nuclear extracts from HT-29 cells (10^7 cells in 100 mm culture dish in each experimental group) were prepared using nuclear extraction kit (Panomics, Redwood City, Calif.). EMSA assays were performed using KLF4 and Sp1 EMSA “Gel-Shift” kits (Panomics), by following the manufacturer's instruction. Briefly, 5 μg of nuclear extract was used for each binding reaction. After 30 min of binding reaction, the samples were separated on 6% polyacrylamide gel at 4° C. at 120 V, and transferred to BrightStar™-Plus positively charged nylon membrane. The biotin-labeled probes on the membrane were visualized by using ECL detection system (Panomics).

[2] = test system: human leukemia CCRF-CEM cells; assay: Cell cycle analysis by flow cytometry, CCRF-CEM; assay type: cell-based; details: 0.25-1 μM, 24 hours
Method: To test the ability of compounds of Formula I to block cell cycle progression, compound 3 was incubated with human colon carcinoma HT-29 or human leukemia CCRF-CEM cells to determine alterations in populations of cells at different stages of the cell cycle using flow cytometric analysis. HT-29 cells were maintained as described in Example 13. CCRF-CEM cells used in this example and subsequent examples were maintained as suspension cells in a growth medium; RPMI-1640 medium (Sigma, St. Louis, Mo.), supplemented with 2 mM L-glutamine (Gibco, Grand Island, N.Y.), 10% fetal bovine serum (FBS) (Multicell, WISENT Inc. St-Bruno, QC), antibiotic-antimycotic (Multicell), at 37° C. in a 5% CO2-humidified incubator.
The assay was carried out as follows. For HT-29 cells, 1×10^6 cells in 10 mL volume of the growth medium were seeded in 100 mm dishes. For CCRF-CEM cells, 3×10^6 cells in 10 mL volume of the growth medium were seeded in 25 cm^2 flask. […] The fluorescence of stained cells was analyzed using FACScan flow cytometer and the Cell Quest program (BD Biosciences, San Jose, Calif.). Data were evaluated using Modfit software (Verity software House, Topsham, Me.). Values were determined by gate analysis of flow cytometric plots. […]

[3] = test system: human lung NCI-H460 cells; assay: Large-cell lung carcinoma NCI-H460 xenograft model, tumour growth; assay type: in vivo, CD-1 female nude mice; details: for tumour size and weight: Lutrol (i.p.), lipid-based (i.v.) or water-based (i.p.) formulations
Method: The ability of compounds of Formula I to inhibit large-cell lung tumour growth in vivo was tested by determining the efficacy of compound 3 in a xenograft model as described below. Compound 3 was tested as a lipid-based formulation having the following composition: distearoylphosphatidylethanolamine-polyethylene glycol 2000 (DSPE-PEG/5% mole) and egg phosphatidylcoline (ePC/95% mole). The formulation was prepared as follows: Stock solutions of compound 3 and lipid (ePC and DSPE-PEG) were prepared in DMF. Specific volumes of the stock solutions of compound 3 and lipid were then mixed in order to achieve a final lipid concentration of 25 mg/mL (ePC:DSPE-PEG=95:5 (mol %) and a compound 3 to total lipid ratio of 1:10 (w/w). The mixture was stirred for four hours, thoroughly dried under nitrogen and left overnight under vacuum. HEPES buffer saline (HBS 0.01 M, pH=7.4) warmed to 60° C. was then added in order to rehydrate the dried film. The solutions were vortexed, stirred for 48 hours at room temperature and sonicated for two and half hours. The formulation was then centrifuged at 1000 rpm for 5 minutes to remove any free compound 3.
CD-1 female nude mice (6-7 weeks, 7 mice per treatment group) were injected […] with human lung NCI-H460 cells (3×10^6 cells in 0.1 ml PBS) subcutaneously. Treatment of the mice with vehicle or compound 3 was initiated 5 days post-inoculation (size of tumours=20-40 mm^3) for 7-day cycles of five days followed by a 2 day break for the duration of the experiment (35 days). Mice were treated with 80 mg/kg/d for the first week followed by 40 mg/kg/d until the end of the experiment. The size of the tumours was measured over the course of the experiment using calipers, and the weight of the tumours was measured after the animals were sacrificed.
The ability of compounds 3, 5, and 7 to inhibit large-cell lung carcinoma cell growth in vivo was tested in the mouse xenograft model as described in Example 27. The compounds were tested as Lutrol formulations (administered i.p.), lipid-based formulations micelles (administered i.v.), or water-based formulations (administered i.p.). The vehicle controls included Lutrol control (administered i.p.), lipid micelle control (administered i.v.), and water control (administered i.p.). Lutrol formulations contained 15% Lutrol and 10% DMSO. The composition of the lipid-based formulations and preparation of same was as described in Example 27 above.

| SMILES | Zn binding to PAR (PAR-Zn2+ absorbance at 500 nm) [1] | DNA binding activity of KLF4 (KLF4) | cell cycle progression [2] | tumour size and weight [3] | tumour growth (size and weight) ([3]; lipid-based formulation, 80 mg/kg/d first week then 40 mg/kg/d, 35 days) |
| --- | --- | --- | --- | --- | --- |
| Cc1[nH]c2ccccc2c1-c1nc2c3cccnc3c3ncccc3c2[nH]1 [Compound 3] | attenuated; also recorded: eliminated | Increased DNA binding activities | induced a block in cell cycle progression at the G1 phase | able to decrease the size (FIG. 16A) and weight (FIG. 16B) of tumours | able to inhibit large-cell lung tumour growth |
| Cc1[nH]c2ccc(F)cc2c1-c1nc2c3cccnc3c3ncccc3c2[nH]1 [Compound 7] | – | – | – | able to decrease the size (FIG. 16A) and weight (FIG. 16B) of tumours | – |
| CCc1cccc2c(-c3nc4c5cccnc5c5ncccc5c4[nH]3)c(C(C)(C)C)[nH]c12 [Compound 64] | eliminated | – | – | – | – |
